Activity calls are given as the source filed them. The calls are words filed in the database; no cut-off is given here.
Legend:
Glutamate NMDA receptor [1] = test: (§1) Antagonist activity at NMDA receptor in cerebellar granule neurons assessed as inhibition of NMDA-induced increase in intracellular calcium concentration by fluorometric assay; assay type: functional, cell-based
Human alphaherpesvirus 2 = assay type: functional, organism-based
Glutamate NMDA receptor [2] = test: (§2) Antagonist activity at NMDA receptor in cerebellar granule neurons assessed as inhibition of glutamate-induced increase in intracellular calcium concentration by fluorometric assay; assay type: functional, cell-based
[3] = tested on: Mammalian orthoreovirus 1; assay type: functional, organism-based
Sindbis virus = assay type: functional, organism-based
[4] = tested on: Vesicular stomatitis virus; assay type: functional, organism-based
Influenza B virus = assay type: functional, organism-based; conditions: B/Hong Kong/05/1972, MDCK
[5] = tested on: Respiratory syncytial virus; assay type: functional, organism-based
Influenza A virus = test: microbe, parasite or virus in culture; conditions: A/Puerto Rico/8/1934(H1N1), MDCK
Human respirovirus 3 = assay type: functional, organism-based
Human alphaherpesvirus 1 = assay type: functional, organism-based
Punta Toro virus = assay type: functional, organism-based
Coxsackievirus B4 = assay type: functional, organism-based
Influenza A virus H3N2 = assay type: functional, organism-based, Influenza A virus (A/Hong Kong/7/1987(H3N2)); conditions: MDCK
Rattus norvegicus = species: Rattus norvegicus; test: Inhibition of [3H]dopamine uptake in Wistar rat striatum synaptosomes at 100 uM by scintillation spectrometry; assay type: functional, subcellular; parameters: scale not given: the % may be the effect or the level left
[6] = Cytotoxicity against MDCK cells by MTS assay; assay type: cell-based, Canis lupus familiaris; conditions: dog
Feline coronavirus = assay type: functional, organism-based
Trypanosoma brucei [7] = test: Trypanocidal activity against Trypanosoma brucei 427 blood stream at 5 ug/ml after 48 hrs by hemocytometer; assay type: functional, organism-based
Trypanosoma brucei [8] = test: Trypanocidal activity against Trypanosoma brucei 427 blood stream after 48 hrs by hemocytometer; assay type: functional, organism-based; conditions: Trypanosoma brucei, 427, 48 h
[9] = target: T1, Glutamate NMDA receptor (Rattus norvegicus) (UniProt P35439+Q00959+Q00960+Q00961+Q62645+Q8VHN2+Q9R1M7); test: as §2; assay type: functional, cell-based
[10] = target: T1, Glutamate NMDA receptor (Rattus norvegicus); test: as §1; assay type: functional, cell-based

SMILES | IC50 (Glutamate NMDA receptor [1]) | Activity (Human alphaherpesvirus 2) | IC50 (Glutamate NMDA receptor [2]) | Activity [3] | Activity (Sindbis virus) | Activity [4] | Activity [5] | Activity (Human respirovirus 3) | Activity (Human alphaherpesvirus 1) | Activity (Punta Toro virus) | Activity (Coxsackievirus B4) | Activity (Rattus norvegicus) | Activity (Feline coronavirus) | other results
NCC12CC3CC(CC1C3)C2 | > 200 µM | inactive | > 200 µM | inactive | inactive | inactive | inactive | inactive | inactive | inactive | inactive | 50.1% | inactive | Activity (Influenza B virus): inactive; EC50 (Influenza A virus): 36 µM; EC50 (Influenza A virus H3N2): 52 µM; MCC [6]: > 530 µM
CN(C)C12CC3(C)CC1CC3(C)C2 | 153 µM | inactive | 185 µM | inactive | inactive | inactive | inactive | inactive | inactive | inactive | inactive | 75.2% | inactive | Activity (Trypanosoma brucei [7]): inactive
CC(N)C12CC3(C)CC1CC3(C)C2 (centres undefined) | 37 µM | inactive | 94 µM | inactive | inactive | inactive | inactive | inactive | inactive | inactive | inactive | 72.2% | inactive | IC50 (Trypanosoma brucei [8]): 6.02 µM; IC90 (Trypanosoma brucei [8]): 9.48 µM
CN(Cc1ccccc1)CC12CC3(C)CC1CC3(C)C2 | 160 µM | inactive | – | inactive | inactive | inactive | inactive | inactive | inactive | inactive | inactive | – | inactive | Activity [9]: inactive
CC12CC3CC1(C)CC3(CN)C2 | 128 µM | inactive | > 500 µM | inactive | inactive | inactive | inactive | inactive | inactive | inactive | inactive | 39.1% | inactive | Activity (Trypanosoma brucei [7]): inactive
CC12CC3CC1(C)CC3(CNCc1ccccc1)C2 | 47 µM | inactive | – | inactive | inactive | inactive | inactive | inactive | inactive | inactive | inactive | – | inactive | Activity [9]: inactive; Activity (Trypanosoma brucei [7]): inactive
CC(N)C12CC3CC(CC(C3)C1)C2 (centres undefined) [RIMANTADINE] | – | – | – | – | – | – | – | – | – | – | – | – | – | Activity (Influenza B virus): inactive; EC50 (Influenza A virus H3N2): 0.85 µM; MCC [6]: > 100 µM; IC90 (Trypanosoma brucei [8]): 14 µM
NC12CC3CC(CC1C3)C2 | 92 µM | – | > 500 µM | – | – | – | – | – | – | – | – | 84.9% | – | Activity (Influenza B virus): inactive; EC50 (Influenza A virus): 196 µM; EC50 (Influenza A virus H3N2): 26.5 µM; MCC [6]: > 575 µM
c1ccc(CNC23CC4CC(CC2C4)C3)cc1 | > 200 µM | inactive | > 200 µM | inactive | inactive | inactive | inactive | inactive | inactive | inactive | inactive | 31.7% | inactive | –
CN(Cc1ccccc1)C12CC3CC(CC1C3)C2 | 36 µM | inactive | > 500 µM | inactive | inactive | inactive | inactive | inactive | inactive | inactive | inactive | 47.2% | inactive | –
CN(Cc1ccccc1)CC12CC3CC(CC1C3)C2 | 178 µM | inactive | > 500 µM | inactive | inactive | inactive | inactive | inactive | inactive | inactive | inactive | 45% | inactive | –
c1ccc(CNCC23CC4CC(CC2C4)C3)cc1 | 138 µM | inactive | > 500 µM | inactive | inactive | inactive | inactive | inactive | inactive | inactive | inactive | 57.9% | inactive | –
COc1ccccc1CNC12CC3CC(CC1C3)C2 | 92 µM | inactive | > 500 µM | inactive | inactive | inactive | inactive | inactive | inactive | inactive | inactive | 58.3% | inactive | –
CN(C)C12CC3CC(CC1C3)C2 | 173 µM | inactive | > 500 µM | inactive | inactive | inactive | inactive | inactive | inactive | inactive | inactive | 71.3% | inactive | –
CC12CC3CC1(C)CC3(N(Cc1ccccc1)Cc1ccccc1)C2 | – | inactive | – | inactive | inactive | inactive | inactive | inactive | inactive | inactive | inactive | 74.3% | inactive | Activity [10]: inactive; Activity [9]: inactive
COc1cccc(CNC23CC4CC(CC2C4)C3)c1 | 87 µM | inactive | > 500 µM | inactive | inactive | inactive | inactive | inactive | inactive | inactive | inactive | 45.8% | inactive | –
CN(C)CC12CC3CC(CC1C3)C2 | > 200 µM | inactive | > 200 µM | inactive | inactive | inactive | inactive | inactive | inactive | inactive | inactive | 62.5% | inactive | –
NC12CC3CC(CC(C3)C1)C2 [AMANTADINE] | – | – | – | – | – | – | – | – | – | – | – | 47.4% | – | Activity (Influenza B virus): inactive; EC50 (Influenza A virus): 77 µM; EC50 (Influenza A virus H3N2): 2.7 µM; MCC [6]: > 100 µM; IC50 (Trypanosoma brucei [8]): > 130 µM
